Our source for the IC50 values is BindingDB's records for doi:10.7270/Q2N58JV3 (Burnham Center For Chemical Genomics, 2010).

This test concerns the target Polyadenylate-binding protein 1 (Homo sapiens, UniProt P11940). The test is described as follows: PABP inhibition in translation initiation, SAR follow-up (AID 435018).

Chain of Polyadenylate-binding protein 1 (P11940 whole entry): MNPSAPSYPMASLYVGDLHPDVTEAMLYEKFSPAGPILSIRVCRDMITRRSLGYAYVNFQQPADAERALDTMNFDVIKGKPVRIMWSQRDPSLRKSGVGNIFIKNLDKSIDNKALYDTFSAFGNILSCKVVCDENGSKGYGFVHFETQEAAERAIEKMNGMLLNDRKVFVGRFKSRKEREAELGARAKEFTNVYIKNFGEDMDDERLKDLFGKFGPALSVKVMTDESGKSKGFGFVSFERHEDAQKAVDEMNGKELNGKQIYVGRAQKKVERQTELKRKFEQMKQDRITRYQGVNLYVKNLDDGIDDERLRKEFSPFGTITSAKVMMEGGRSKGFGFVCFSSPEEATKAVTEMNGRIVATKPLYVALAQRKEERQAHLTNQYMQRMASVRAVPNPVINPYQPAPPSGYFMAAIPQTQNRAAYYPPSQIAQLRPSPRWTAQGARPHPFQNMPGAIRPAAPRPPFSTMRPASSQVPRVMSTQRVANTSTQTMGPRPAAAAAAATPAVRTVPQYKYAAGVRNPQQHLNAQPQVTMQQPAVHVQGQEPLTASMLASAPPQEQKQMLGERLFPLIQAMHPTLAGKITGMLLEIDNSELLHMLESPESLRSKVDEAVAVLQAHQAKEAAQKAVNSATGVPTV

For orientation: IC50 means the midpoint of a concentration-inhibition curve. A higher IC50 goes with weaker potency. In turn, `COc1cc([CH+][N-]NC(=O)c2ccc(O)cc2)ccc1OCC(=O)Nc1cccc([N+](=O)[O-])c1` yielded a half-inhibitory concentration (IC50) of more than 100 µM.
